From US4275076A, “Substituted naphthoic acids” (American Cyanamid Company, priority 1980, dated 1981)
Blank lines part the entries; values can stand above or below the molecule they belong to.

Key:
[1] = biological target: T1, human skin fibroblast collagenase (Homo sapiens, UniProt P03956); test: Collagenase Assay, Test Code 006 (degradation of 14C-labeled native collagen fibrils); format: biochemical; conditions: 30 μg./ml., 37° C., 16 hours; based on the 0% value for the enzyme control
T1 construct: endogenous in cells; host or cells: human skin fibroblasts
T1 sequence (P03956 100-469): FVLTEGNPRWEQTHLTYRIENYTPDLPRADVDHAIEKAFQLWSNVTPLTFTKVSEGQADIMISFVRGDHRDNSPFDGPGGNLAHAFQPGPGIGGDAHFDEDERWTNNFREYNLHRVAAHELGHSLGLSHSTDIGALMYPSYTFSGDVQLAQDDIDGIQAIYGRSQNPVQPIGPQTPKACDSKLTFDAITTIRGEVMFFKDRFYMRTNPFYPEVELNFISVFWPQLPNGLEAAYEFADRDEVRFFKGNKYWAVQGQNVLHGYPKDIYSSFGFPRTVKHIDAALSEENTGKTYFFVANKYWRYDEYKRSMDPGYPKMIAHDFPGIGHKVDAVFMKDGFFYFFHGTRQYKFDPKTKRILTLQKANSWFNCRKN
Experimental: An active inhibitor would inhibit the degradation of the collagen fibril; (iii) Leukocyte Neutral Proteases Inhibitor Assay--This test measures the ability of neutral proteases derived from human leukocytes to degrade radiolabeled proteoglycans entrapped in polyacrylamide beads.
(i) Collagenase Assay--Test Code 006
Collagenase assays were performed by a modification of the method of Harper, et al., Biochem., 10, 3035 (1971). In a typical assay (total volume of 0.45 ml.), 100 μl. of the activated enzyme was added to the ^14 C-labeled collagen fibrils (250 μl.) followed by 100 μl. of 50 mM cacodylate, pH 7.4, containing 5 mM calcium chloride. After incubation at 37° C. for 16 hours, the tubes were centrifuged in a Beckman microfuge for five minutes at full speed. An aliquot (200 μl.) of the supernatant, representing collagenase digestion products of the fibril, was assayed for radioactivity. The effect of the test compound on collagen degradation by collagenase was examined as follows:
The test compound (in distilled water) was added at a test concentration of 30 μg./ml. to the assay tubes containing active collagenase (total volume 450 μl.) and after 16 hours the amount of radioactivity in the supernatant was determined. Appropriate blanks and trypsin controls were run in parallel.
The activities are expressed as % inhibition (lowering) of collagenase activity, i.e. based on the 0% value for the enzyme control.

collagenase [2] = conditions: in words; collagenase or a proteinase contaminant in the collagenase preparation; cited from earlier work
collagenase [3] = conditions: in words; cited from earlier work
corneal ulceration = conditions: human; cited from earlier work
corneal ulcerations = conditions: directly applied to the eye, alkali burned rabbit; cited from earlier work
[4] = compared with cysteine; cited from earlier work

inhibition at 30 µg/mL [1]: 92%
Molecule: O=C(Nc1cccc(C(=O)Nc2ccc3cc(C(=O)O)cc(O)c3c2)c1)Nc1cccc(C(=O)Nc2ccc3cc(C(=O)O)cc(O)c3c2)c1 [6,6'-[Ureylenebis(m-phenylenecarbonylimino)]bis[4-hydroxy-2-naphthoic acid]]

Molecule: Cc1ccc(C(=O)Nc2ccc(S(=O)(=O)O)c3cc(S(=O)(=O)O)cc(S(=O)(=O)O)c23)cc1NC(=O)c1cccc(NC(=O)Nc2cccc(C(=O)Nc3cc(C(=O)Nc4ccc(S(=O)(=O)O)c5cc(S(=O)(=O)O)cc(S(=O)(=O)O)c45)ccc3C)c2)c1 [Suramin]
inhibiting the activity of collagenase (collagenase [2]): not inhibiting the action of collagenase

Molecule: sodium auriothiomalate
collagenase inhibition (collagenase [3]): collagenase inhibitors

Molecule: CC(=O)N[C@@H](CS)C(=O)O [acetylcysteine]
treatment of acute and chronic corneal ulceration (corneal ulceration): effective
frequency of ulceration (corneal ulcerations): reduce the frequency of ulceration
stability [4]: greater stability

Molecule: N[C@@H](CS)C(=O)O [cysteine]
treatment of acute and chronic corneal ulceration (corneal ulceration): effective
collagenase inhibition (collagenase [3]): collagenase inhibitors

Molecule: α2 -macroglobulin: Naturally occurring collagenase inhibitors include the serum components α2 -macroglobulin and β1-anticollagenase
collagenase inhibition (collagenase [3]): collagenase inhibitors

inhibition at 30 µg/mL [1]: 7%
Molecule: CCOC(=O)c1cc(OC(C)=O)c2cc(NC(=O)c3cccc(NC(=O)Nc4cccc(C(=O)Nc5ccc6cc(C(=O)OCC)cc(OC(C)=O)c6c5)c4)c3)ccc2c1 [6,6'-[Ureylenebis(m-phenylenecarbonylimino)]bis[4-hydroxy-2-naphthoic acid]diethyl ester diacetate]

Molecule: Cc1cc(-c2ccc(/N=N/c3c(S(=O)(=O)O)cc4cc(S(=O)(=O)O)cc(N)c4c3O)c(C)c2)ccc1/N=N/c1c(S(=O)(=O)O)cc2cc(S(=O)(=O)O)cc(N)c2c1O [trypan blue]
inhibiting the activity of collagenase (collagenase [2]): inhibiting the activity of collagenase

Molecule: O[C@@H](CS)[C@@H](O)CS [dithiothretol]
collagenase inhibition (collagenase [3]): collagenase inhibitors

inhibition at 30 µg/mL [1]: 57%
Molecule: CCOC(=O)c1cc(O)c2cc(NC(=O)c3cccc(NC(=O)Nc4cccc(C(=O)Nc5ccc6cc(C(=O)OCC)cc(O)c6c5)c4)c3)ccc2c1 [6,6'-[Ureylenebis(m-phenylenecarbonylimino)]bis[4-hydroxy-2-naphthoic acid] diethyl ester]

Molecule: c1cnc2c(c1)ccc1cccnc12 [1,10-phenanthroline]
collagenase inhibition (collagenase [3]): collagenase inhibitors

Molecule: O=C([O-])CN(CCN(CC(=O)[O-])CC(=O)[O-])CC(=O)[O-].[Ca+2].[Ca+2] [Calcium ethylenediaminetetraacetate]
frequency of ulceration (corneal ulcerations): reduce the frequency of ulceration
